pIC50: −log10 of the molar value. A value given as a limit tells only on which side of the number the result lay.

The target in assay [1] is T1, hSCN3A (Homo sapiens, UniProt Q9NY46).
T1 construct: expressed in transfected cells
Description: Whole-cell patch-clamp electrophysiology (conventional or PatchXpress), HEK cells expressing hSCN3A, estimated IC-50. It counts as cell-based. The conditions noted are these: estimated IC-50, HEK cells expressing hSCN3A; class symbols or bounds; read-out: SCN3A EIC-50. In a few lines:
(§1)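 Stably transfected HEK cells recorded by whole-cell voltage clamp (manual or PatchXpress) at 22–24 °C in pH 7.4 HEPES-buffered extracellular solution. Cells held at the empirically determined inactivation V1/2 after an 8 s prepulse, then stepped to 0 mV for 20 ms; % inhibition from current amplitude before vs after compound.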

Assay [2] deals with T2, hSCN9A (Homo sapiens, UniProt Q15858).
T2 construct: expressed in transfected cells
Description: Whole-cell patch-clamp electrophysiology (conventional or PatchXpress), HEK cells expressing hSCN9A, estimated IC-50. The assay is classed as cell-based. As to conditions: estimated IC-50, HEK cells expressing hSCN9A; class symbols or bounds; read-out: SCN9A EIC-50. In short, it runs like this:
as §1

T2 sequence (Q15858 whole entry): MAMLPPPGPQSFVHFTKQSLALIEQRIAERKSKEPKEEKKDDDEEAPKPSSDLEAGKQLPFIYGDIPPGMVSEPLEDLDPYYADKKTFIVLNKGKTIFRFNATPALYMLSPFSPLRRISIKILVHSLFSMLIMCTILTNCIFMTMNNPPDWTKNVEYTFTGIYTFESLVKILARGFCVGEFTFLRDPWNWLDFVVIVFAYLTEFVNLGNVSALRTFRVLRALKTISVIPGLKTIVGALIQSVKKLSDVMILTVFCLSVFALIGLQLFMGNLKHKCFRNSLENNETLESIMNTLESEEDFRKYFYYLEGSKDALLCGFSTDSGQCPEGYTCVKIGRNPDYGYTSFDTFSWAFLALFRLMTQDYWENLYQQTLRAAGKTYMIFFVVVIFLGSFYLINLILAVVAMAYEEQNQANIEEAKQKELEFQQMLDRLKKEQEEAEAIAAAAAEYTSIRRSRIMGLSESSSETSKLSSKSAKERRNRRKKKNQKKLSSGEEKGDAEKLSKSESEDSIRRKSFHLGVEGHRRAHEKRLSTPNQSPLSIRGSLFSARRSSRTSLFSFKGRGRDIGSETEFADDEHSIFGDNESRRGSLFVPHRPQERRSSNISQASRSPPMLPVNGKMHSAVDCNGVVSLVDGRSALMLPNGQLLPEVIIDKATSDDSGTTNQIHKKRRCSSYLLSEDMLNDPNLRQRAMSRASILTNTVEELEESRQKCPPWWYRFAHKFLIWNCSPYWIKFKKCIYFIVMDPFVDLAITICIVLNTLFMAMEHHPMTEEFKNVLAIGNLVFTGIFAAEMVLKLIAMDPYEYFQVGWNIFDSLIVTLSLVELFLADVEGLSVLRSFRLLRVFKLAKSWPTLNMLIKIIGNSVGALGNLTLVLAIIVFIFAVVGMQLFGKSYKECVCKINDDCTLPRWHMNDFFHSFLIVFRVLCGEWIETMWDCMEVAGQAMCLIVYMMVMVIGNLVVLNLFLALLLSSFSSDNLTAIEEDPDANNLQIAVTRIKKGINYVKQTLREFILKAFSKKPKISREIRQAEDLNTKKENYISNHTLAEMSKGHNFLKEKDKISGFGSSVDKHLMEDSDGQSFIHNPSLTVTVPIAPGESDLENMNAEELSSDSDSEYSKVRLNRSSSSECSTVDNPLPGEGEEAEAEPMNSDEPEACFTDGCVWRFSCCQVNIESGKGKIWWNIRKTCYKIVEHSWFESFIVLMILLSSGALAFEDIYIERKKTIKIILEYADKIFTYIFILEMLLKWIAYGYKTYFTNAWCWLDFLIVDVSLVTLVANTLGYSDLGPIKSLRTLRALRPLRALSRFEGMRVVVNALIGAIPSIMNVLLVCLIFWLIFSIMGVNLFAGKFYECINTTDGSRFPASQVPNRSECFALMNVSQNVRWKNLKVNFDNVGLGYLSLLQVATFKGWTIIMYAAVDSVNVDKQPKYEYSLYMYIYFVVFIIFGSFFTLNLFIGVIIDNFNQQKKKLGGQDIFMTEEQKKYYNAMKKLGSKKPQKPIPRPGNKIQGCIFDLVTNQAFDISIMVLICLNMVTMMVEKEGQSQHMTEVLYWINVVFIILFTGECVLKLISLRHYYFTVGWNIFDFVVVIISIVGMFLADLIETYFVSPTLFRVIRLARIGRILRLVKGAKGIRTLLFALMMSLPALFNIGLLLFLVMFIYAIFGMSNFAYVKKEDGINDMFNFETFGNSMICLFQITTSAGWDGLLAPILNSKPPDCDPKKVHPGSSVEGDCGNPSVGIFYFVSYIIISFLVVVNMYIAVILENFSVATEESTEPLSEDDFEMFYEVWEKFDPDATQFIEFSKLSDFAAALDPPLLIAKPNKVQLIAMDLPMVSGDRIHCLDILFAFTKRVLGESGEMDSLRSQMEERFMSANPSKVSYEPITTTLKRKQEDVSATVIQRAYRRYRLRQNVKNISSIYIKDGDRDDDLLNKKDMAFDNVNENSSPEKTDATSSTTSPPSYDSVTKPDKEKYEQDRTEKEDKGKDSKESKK
T1 sequence (Q9NY46 whole entry): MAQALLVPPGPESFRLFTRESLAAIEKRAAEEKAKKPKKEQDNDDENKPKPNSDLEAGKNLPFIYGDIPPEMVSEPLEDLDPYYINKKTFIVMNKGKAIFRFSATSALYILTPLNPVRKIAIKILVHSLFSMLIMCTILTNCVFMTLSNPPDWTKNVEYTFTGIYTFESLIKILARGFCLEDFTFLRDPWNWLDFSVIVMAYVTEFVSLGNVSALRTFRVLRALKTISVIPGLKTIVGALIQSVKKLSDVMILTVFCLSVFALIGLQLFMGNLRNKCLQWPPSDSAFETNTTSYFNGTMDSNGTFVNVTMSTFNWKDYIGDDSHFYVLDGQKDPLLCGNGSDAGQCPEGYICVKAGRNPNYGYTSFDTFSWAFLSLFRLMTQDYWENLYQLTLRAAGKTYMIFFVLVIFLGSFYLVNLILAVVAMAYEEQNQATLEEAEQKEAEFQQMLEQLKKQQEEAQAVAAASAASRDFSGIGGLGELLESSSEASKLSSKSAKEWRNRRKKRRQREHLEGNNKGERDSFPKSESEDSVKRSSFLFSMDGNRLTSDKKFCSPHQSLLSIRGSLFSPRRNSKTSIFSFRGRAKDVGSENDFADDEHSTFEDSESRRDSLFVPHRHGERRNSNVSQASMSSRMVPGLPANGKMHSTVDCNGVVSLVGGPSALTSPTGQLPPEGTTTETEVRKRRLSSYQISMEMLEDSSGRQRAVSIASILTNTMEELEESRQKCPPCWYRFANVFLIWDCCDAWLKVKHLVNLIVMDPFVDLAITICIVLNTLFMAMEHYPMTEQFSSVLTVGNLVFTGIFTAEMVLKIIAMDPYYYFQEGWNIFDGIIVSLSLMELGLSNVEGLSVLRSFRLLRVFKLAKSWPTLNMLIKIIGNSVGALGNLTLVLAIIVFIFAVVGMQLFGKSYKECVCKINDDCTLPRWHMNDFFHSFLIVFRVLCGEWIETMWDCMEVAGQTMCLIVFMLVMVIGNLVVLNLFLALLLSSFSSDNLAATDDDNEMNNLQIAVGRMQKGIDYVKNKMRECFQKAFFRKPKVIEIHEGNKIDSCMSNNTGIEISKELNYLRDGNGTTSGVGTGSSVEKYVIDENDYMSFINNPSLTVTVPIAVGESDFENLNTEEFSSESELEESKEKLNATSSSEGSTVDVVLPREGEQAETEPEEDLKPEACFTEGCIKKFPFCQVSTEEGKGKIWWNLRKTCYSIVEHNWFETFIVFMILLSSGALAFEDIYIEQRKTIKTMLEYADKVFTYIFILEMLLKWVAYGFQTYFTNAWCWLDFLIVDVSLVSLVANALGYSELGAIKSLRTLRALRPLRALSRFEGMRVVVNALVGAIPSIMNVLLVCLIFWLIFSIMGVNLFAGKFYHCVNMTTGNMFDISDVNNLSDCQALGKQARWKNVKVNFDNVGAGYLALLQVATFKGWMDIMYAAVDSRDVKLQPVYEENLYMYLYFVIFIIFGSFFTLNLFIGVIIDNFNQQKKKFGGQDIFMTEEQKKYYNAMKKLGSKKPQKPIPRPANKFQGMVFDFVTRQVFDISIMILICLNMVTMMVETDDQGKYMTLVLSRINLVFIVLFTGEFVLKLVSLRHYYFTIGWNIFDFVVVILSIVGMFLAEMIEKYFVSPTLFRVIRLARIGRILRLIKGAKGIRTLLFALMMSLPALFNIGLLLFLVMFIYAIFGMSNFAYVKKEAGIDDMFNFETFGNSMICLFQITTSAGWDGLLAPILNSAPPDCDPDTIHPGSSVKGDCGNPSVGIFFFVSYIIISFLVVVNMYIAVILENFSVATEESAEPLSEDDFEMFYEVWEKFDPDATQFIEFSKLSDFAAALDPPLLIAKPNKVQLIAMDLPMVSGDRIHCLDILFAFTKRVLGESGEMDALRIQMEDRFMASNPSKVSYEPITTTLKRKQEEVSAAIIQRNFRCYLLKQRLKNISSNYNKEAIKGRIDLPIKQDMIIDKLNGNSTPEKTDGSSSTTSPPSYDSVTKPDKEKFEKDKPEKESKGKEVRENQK

`CC(C)(Oc1ccc(Cl)cc1)c1csc(Nc2ccc(S(=O)(=O)Nc3nccs3)cc2)n1` [Compound 97, 4-(4-(2-(4-chlorophenoxy)propan-2-yl)thiazol-2-ylamino)-N-(thiazol-2-yl)benzenesulfonamide]: the pIC50 in assay [1] was above 5.70; in assay [2], below 6.00.

Regarding `O=S(=O)(Nc1nccs1)c1ccc(Nc2cncc(Cc3cc(F)cc(F)c3)n2)cc1` [Compound 98, 4-(6-(3,5-difluorobenzyl)pyrazin-2-ylamino)-N-(thiazol-2-yl)benzenesulfonamide], the pIC50 was above 5.70 in assay [1] and 5.00 to 5.70 in assay [2].

Regarding `O=S(=O)(Nc1nccs1)c1ccc(Nc2nc3cc(Cl)ccc3[nH]2)cc1` [Compound 99, 4-(5-chloro-1H-benzo[d]imidazol-2-ylamino)-N-(thiazol-2-yl)benzenesulfonamide], the pIC50 in assay [1] was above 5.70; in assay [2], 5.00 to 5.70.

In the case of `Cn1c(Nc2ccc(S(=O)(=O)Nc3nccs3)cc2)nc2cc(Cl)ccc21` [Compound 100, 4-(5-chloro-1-methyl-1H-benzo[d]imidazol-2-ylamino)-N-(thiazol-2-yl)benzenesulfonamide], the figures for the pIC50 in assay [1] and in assay [2] were above 5.70 and 5.00 to 5.70, respectively.

As for `Cn1c(Nc2ccc(S(=O)(=O)Nc3nccs3)cc2)nc2ccc(Cl)cc21` [Compound 101, 4-(6-chloro-1-methyl-1H-benzo[d]imidazol-2-ylamino)-N-(thiazol-2-yl)benzenesulfonamide], the results for the pIC50 in assay [1] and in assay [2] were above 5.70 and 5.00 to 5.70, respectively.

For `O=S(=O)(Nc1ccccn1)c1ccc(Nc2nc(Cc3ccc(Cl)cc3)cs2)cc1` [Compound 103, 4-(4-(4-chlorobenzyl)thiazol-2-ylamino)-N-(pyridin-2-yl)benzenesulfonamide], the pIC50 is below 5.00 in assay [1] and below 6.00 in assay [2].

On to `O=S(=O)(Nc1nccs1)c1ccc(Nc2ncc(S(=O)(=O)c3ccc(Cl)cc3)s2)cc1F` [Compound 105, 4-(5-(4-chlorophenylsulfonyl)thiazol-2-ylamino)-2-fluoro-N-(thiazol-2-yl)benzenesulfonamide], for which the pIC50 in assay [1] is above 5.70; in assay [2], below 5.00.

As to `CC(C)(C)c1csc(Nc2ccc(S(=O)(=O)Nc3nccs3)cn2)n1` [Compound 106, 6-(4-tert-butylthiazol-2-ylamino)-N-(thiazol-2-yl)pyridine-3-sulfonamide], the pIC50 in assay [1] was 5.00 to 5.70; in assay [2], below 6.00.

In the case of `O=S(=O)(Nc1nccs1)c1ccc(Nc2nc(Cc3ccc(Cl)cc3)cs2)nc1` [Compound 107, 6-(4-(4-chlorobenzyl)thiazol-2-ylamino)-N-(thiazol-2-yl)pyridine-3-sulfonamide], the pIC50 in assay [1] is above 5.70; in assay [2], 5.00 to 5.70.

As for `Cc1cnc(NS(=O)(=O)c2ccc(Nc3nc(Cc4ccc(Cl)cc4)cs3)cc2F)s1` [Compound 108, 4-(4-(4-chlorobenzyl)thiazol-2-ylamino)-2-fluoro-N-(5-methylthiazol-2-yl)benzenesulfonamide], the pIC50 in assay [1] and in assay [2] was 5.00 to 5.70 each time.

For the molecule `Cc1csc(NS(=O)(=O)c2ccc(Nc3nc(Cc4ccc(Cl)cc4)cs3)cc2F)n1` [Compound 109, 4-(4-(4-chlorobenzyl)thiazol-2-ylamino)-2-fluoro-N-(4-methylthiazol-2-yl)benzenesulfonamide], the pIC50 in assay [1] was above 5.70; in assay [2], 5.00 to 5.70.

In the case of `CC(C)(C)n1nc(Cc2ccc(Cl)cc2)cc1Nc1ccc(S(=O)(=O)Nc2ccccn2)cc1` [Compound 110, 4-(1-tert-butyl-3-(4-chlorobenzyl)-1H-pyrazol-5-ylamino)-N-(pyridin-2-yl)benzenesulfonamide], the results for the pIC50 in assay [1] and in assay [2] were above 5.70 and below 5.00, respectively.

Regarding `CC(C)(C)n1nc(Cc2ccc(Cl)cc2)cc1Nc1ccc(S(=O)(=O)Nc2nncs2)cc1` [Compound 111, 4-(1-tert-butyl-3-(4-chlorobenzyl)-1H-pyrazol-5-ylamino)-N-(1,3,4-thiadiazol-2-yl)benzenesulfonamide], the pIC50 was above 5.70 in assay [1] and 5.00 to 5.70 in assay [2].

Turning to `NC(=O)c1cnn(-c2ccc(F)c(Cl)c2)c1Nc1ccc(S(=O)(=O)Nc2nccs2)cc1` [Compound 112, 1-(3-chloro-4-fluorophenyl)-5-(4-(N-thiazol-2-ylsulfamoyl)phenylamino)-1H-pyrazole-4-carboxamide], the pIC50 in assay [1] and in assay [2] was below 6.00 each time.

Consider `CC(C)(C)c1csc(Nc2ccc(S(=O)(=O)Nc3nccs3)c(C#N)c2)n1` [Compound 113, 4-(4-tert-butylthiazol-2-ylamino)-2-cyano-N-(thiazol-2-yl)benzenesulfonamide], for which the pIC50 was 5.00 to 5.70 in assay [1] and below 6.00 in assay [2].

For the molecule `O=S(=O)(Nc1nccs1)c1ccc(Nc2cc(Cc3ccc(Cl)cc3)n[nH]2)cc1F` [Compound 115, 4-(3-(4-chlorobenzyl)-1H-pyrazol-5-ylamino)-2-fluoro-N-(thiazol-2-yl)benzenesulfonamide], the pIC50 in assay [1] and in assay [2] was above 5.70 in each case.

In the case of `Cn1nc(C2(c3ccc(Cl)cc3)CC2)cc1Nc1ccc(S(=O)(=O)Nc2nccs2)cc1` [Compound 129, 4-(3-(1-(4-chlorophenyl)cyclopropyl)-1-methyl-1H-pyrazol-5-ylamino)-N-(thiazol-2-yl)benzenesulfonamide], the pIC50 in assay [1] and in assay [2] was above 5.70 throughout.

For the molecule `O=S(=O)(Nc1nccs1)c1ccc(Nc2cnn(CC(F)(F)F)c2)cc1F` [Compound 130, 2-fluoro-N-(thiazol-2-yl)-4-(1-(2,2,2-trifluoroethyl)-1H-pyrazol-4-ylamino)benzenesulfonamide], the pIC50 in assay [1] is above 5.70; in assay [2], 5.00 to 5.70.

For `Cn1nc(CC2CCCCC2)cc1Nc1ccc(S(=O)(=O)Nc2nccs2)c(F)c1` [Compound 133, 4-(3-(cyclohexylmethyl)-1-methyl-1H-pyrazol-5-ylamino)-2-fluoro-N-(thiazol-2-yl)benzenesulfonamide], the pIC50 in assay [1] and in assay [2] was above 5.70 in each case.

For the molecule `Cn1nc(CC2CCCCC2)cc1Nc1ccc(S(=O)(=O)Nc2nccs2)c(O)c1` [Compound 134, 4-(3-(cyclohexylmethyl)-1-methyl-1H-pyrazol-5-ylamino)-2-hydroxy-N-(thiazol-2-yl)benzenesulfonamide], the pIC50 in assay [1] and in assay [2] was above 5.70 each time.

`CC(C)c1cc(Nc2ccc(S(=O)(=O)Nc3nccs3)c(F)c2)n(-c2ccccc2)n1` [Compound 145, 2-fluoro-4-(3-isopropyl-1-phenyl-1H-pyrazol-5-ylamino)-N-(thiazol-2-yl)benzenesulfonamide]: the pIC50 in assay [1] and in assay [2] was above 5.70 throughout.

With `Cc1cc(Nc2ccc(S(=O)(=O)Nc3nccs3)c(F)c2)n(-c2ccccc2C)n1` [Compound 146, 2-fluoro-4-(3-methyl-1-o-tolyl-1H-pyrazol-5-ylamino)-N-(thiazol-2-yl)benzenesulfonamide], the pIC50 in assay [1] and in assay [2] was above 5.70 throughout.

`Cc1ccc(-n2nc(C)cc2Nc2ccc(S(=O)(=O)Nc3nccs3)c(F)c2)cc1` [Compound 147, 2-fluoro-4-(3-methyl-1-p-tolyl-1H-pyrazol-5-ylamino)-N-(thiazol-2-yl)benzenesulfonamide]: the pIC50 in assay [1] and in assay [2] was above 5.70 in each case.

As for `Cc1cc(Nc2ccc(S(=O)(=O)Nc3nccs3)c(F)c2)n(-c2ccccc2Cl)n1` [Compound 149, 4-(1-(2-chlorophenyl)-3-methyl-1H-pyrazol-5-ylamino)-2-fluoro-N-(thiazol-2-yl)benzenesulfonamide], the pIC50 in assay [1] and in assay [2] was above 5.70 each time.

With `O=S(=O)(Nc1nccs1)c1ccc(Nc2cnn(Cc3ccc(C(F)(F)F)cc3)c2)cc1F` [Compound 150, 2-fluoro-N-(thiazol-2-yl)-4-(1-(4-(trifluoromethyl)benzyl)-1H-pyrazol-4-ylamino)benzenesulfonamide], the pIC50 in assay [1] and in assay [2] was above 5.70 in each case.

Turning to `O=S(=O)(Nc1nccs1)c1ccc(Nc2ccnn2-c2ccccc2)cc1` [Compound 151, 4-(1-phenyl-1H-pyrazol-5-ylamino)-N-(thiazol-2-yl)benzenesulfonamide], the pIC50 in assay [1] is above 5.70; in assay [2], 5.00 to 5.70.

Take `Cc1cc(Nc2ccc(S(=O)(=O)Nc3nccs3)c(F)c2)n(-c2cccc(Cl)c2)n1` [Compound 152, 4-(1-(3-chlorophenyl)-3-methyl-1H-pyrazol-5-ylamino)-2-fluoro-N-(thiazol-2-yl)benzenesulfonamide]: the pIC50 in assay [1] and in assay [2] was above 5.70 throughout.

In the case of `Cn1nc(-c2ccc(Cl)cc2)cc1Nc1ccc(S(=O)(=O)Nc2nccs2)c(F)c1` [Compound 153, 4-(3-(4-chlorophenyl)-1-methyl-1H-pyrazol-5-ylamino)-2-fluoro-N-(thiazol-2-yl)benzenesulfonamide], the pIC50 in assay [1] and in assay [2] was above 5.70 in each case.

As for `O=S(=O)(Nc1nccs1)c1ccc(Nc2cc(-c3ccccc3)nn2-c2ccccc2)cc1F` [Compound 154, 4-(1,3-diphenyl-1H-pyrazol-5-ylamino)-2-fluoro-N-(thiazol-2-yl)benzenesulfonamide], the pIC50 in assay [1] and in assay [2] was above 5.70 in each case.

In the case of `NC(=O)Cn1nc(Cc2ccc(Cl)cc2)cc1Nc1ccc(S(=O)(=O)Nc2nccs2)cc1` [Compound 155, 2-(3-(4-chlorobenzyl)-5-(4-(N-thiazol-2-ylsulfamoyl)phenylamino)-1H-pyrazol-1-yl)acetamide], the pIC50 in assay [1] and in assay [2] was above 5.70 in each case.

For `CC(C)(C)c1cc(Nc2ccc(S(=O)(=O)Nc3nccs3)c(F)c2)n(-c2ccccc2)n1` [Compound 156, 4-(3-tert-butyl-1-phenyl-1H-pyrazol-5-ylamino)-2-fluoro-N-(thiazol-2-yl)benzenesulfonamide], the pIC50 in assay [1] and in assay [2] was above 5.70 in each case.

These data come from patent US8124610B2, “Sodium channel inhibitors” (Icagen Inc., priority 2007, dated 2012).
